Source: patent US20250354297A1, “SHIELDED SMALL NUCLEOTIDES FOR INTRACELLULAR BARCODING” (BOARD OF REGENTS, THE UNIVERSITY OF TEXAS SYSTEM, priority 2021, published 2025)

Experiments:
[1] = test system: CD19.28z CAR T cells; test: 8-plex CAR T SSN-seq ex vivo (infusion product); type: cell-based, human; conditions: 5 μM TWS119, 0.15 μM JQ1; CCR7, SELL, TCF7
Procedure: Pooled/sorted cells were processed for single-cell RNA sequencing at using Chromium Next GEM Single Cell 3′ Reagent Kit V3.1 (with feature barcoding technology for CRISPR screening), following the manufacturer's protocol. For enrichSSN amplification, a primer specific to the 5′ shield sequence was used (see FIG. 16A) and PCR was performed following 10× Genomics protocol for “Feature PCR” with 15 or 19 amplification cycles. Pooled libraries (the 3′ gene expression library and the sgRNA/SSN library, at a 4:1 ratio) were sequenced with a NovaSeq6000 SP-100 flow cell (Illumina) for each scRNA-seq experiment.
scRNA-seq data were preprocessed. In brief, gene expressing reads were aligned to the GRCh38 genome (human) and/or mm 10 genome (mouse) using the 10× Genomics Cell Ranger (version 6.0.2, 6.1.1 and 6.1.2), with the cellranger count pipeline. sgRNA/SSN counts were retrieved by cellranger count using the pattern containing unique group barcodes and constant sequences derived from the sgRNA/SSN scaffold. […] To ensure a fair quantitative comparison, sgRNA/SSN UMI counts shown across different experiments were restricted to the raw output of cellranger count. Filtered feature-barcode matrices were further analyzed in R using Seurat (version 4.0.3). In general, genes detected in less than three cells and cells expressing <200 or >7,000 RNA features (genes) were filtered out. […]

[2] = test system: CD19.28z CAR T cells; test: Flow cytometry of T cell memory markers CCR7 and CD45RA in 8-plex CAR T cells; type: cell-based, human; conditions: 5 μM TWS119, 0.15 μM JQ1, day 8
Procedure: 8-plex CAR T SSN-seg ex vivo (infusion product). Twenty-four hours after activation, human primary T cells were transduced with lentiviral vectors (see FIG. 16B). Transduced T cells were cultured in the presence of 5 μM TWS119, 0.15 μM JQ1, the combination of TWS119 and JQ1 (Combo), or DMSO (Mock) controls. CAR T cells in four treatment groups were expanded in culture media supplemented with IL2 or IL7 plus IL15 (denoted as IL7×15) cytokines. Culture media containing small molecule inhibitors and cytokines were replenished every other day. CAR T cells were maintained at a concentration of 0.5 to 1×10^6 cells per ml. On day 8, expression of T cell memory makers (CCR7 and CD45RA) was evaluated in all treatment groups using flow cytometry. Then, CAR T cells in all groups were counted and pooled at equal ratios. To enrich CAR^+ population a cell surface reporter NGFR^+ was utilized to FACS purify CAR T cells before scRNA-seq analysis. Aliquots of the pooled samples were also injected into tumor mice. Remaining CAR T cells were cryopreserved in CryoStor CS10 media (Stem Cell Technologies).

Q: With `Cc1sc2c(c1C)C(c1ccc(Cl)cc1)=N[C@@H](CC(=O)OC(C)(C)C)c1nnc(C)n1-2` [JQ1] as the compound, how does the “enriched genes in transcriptome analysis” value [1] read?
A: enriched in memory-related genes

Q: And the “naïve and central memory markers (CCR7, CD45RA)” value [2]?
A: enrichment of naïve and central memory markers

Q: For `Nc1cccc(-c2cc3c(Oc4cccc(O)c4)ncnc3[nH]2)c1` [TWS119], which “enriched genes in transcriptome analysis” value [1] is on record?
A: enriched in memory-related genes

Q: And the “naïve and central memory markers (CCR7, CD45RA)” value [2]?
A: enrichment of naïve and central memory markers
